Experimental findings from patent publication US9562899B2, “Method of detecting OXA-048 carbapenemase producing bacteria” (BIOMÉRIEUX, priority 2012, dated 2017) are described below.

Type in all cases: cell-based, Enterobacteriaceae
One experiment relates to NDM-1 strains. The conditions noted are these: class B CPEs of NDM type; proportionally to the EDTA concentration used. The source says: (§1) Optimization of the Detection Specificity by Introducing Specific Inhibitors Inhibition of Class B Strains (NDM, VIM, IMP) by Adding EDTA
(§2) Identical to that used to determine the temocillin MICs by agar dilution (example 1).
(§3) For each temocillin concentration, the following concentrations of active EDTA will be tested in the form of disodium EDTA: 0, 1.77, 2.12, 2.47 and 2.83 mmol/l.
(§4) Method: identical to the method used in example 1.

The subject of a further experiment is VIM strains. Conditions: class B CPEs of VIM type; proportionally to the EDTA concentration used.
From the text: as §1, §2, §3, §4

In experiment [1] the test system is strains with impermeability-mediated resistance (IR). The conditions noted are these: strains with impermeability-mediated resistance to carbapenems (IR).
From the text: as §1, §2, §3, §4

In the case of `O=C(O)CN(CCN(CC(=O)O)CC(=O)O)CC(=O)O` [EDTA], the “effect of EDTA on temocillin MIC” value with NDM-1 strains is listed as “decrease in their MIC”; in the experiment with VIM strains, “decrease in their MIC”; in experiment [1] it was “slight increase in the MICs”.
